Test results published in patent publication US12433903B2 (priority 2021, dated 2025).
pEC50: −log10 of the molar value.

Key:
[1] = tested on: cryopreserved hepatocytes; assay: Hepatocyte stability and metabolite profiling, rat; type: in vitro ADME; settings: rat hepatocyte samples, 20 and 120 minute
Experimental: (§1) The objective of this study was to investigate the stability of the test compound, CBG, in human, rat, dog, mouse, monkey and minipig cryopreserved hepatocytes. Follow-on metabolite profiling was performed.
(§2) CBG was incubated up to 2 hr with cryopreserved hepatocytes. Cryopreserved hepatocytes in suspension were added to test compound in supplemented media following pre-incubation to initiate the reaction and the reactions were stopped by organic solvent at the appropriate time points. The termination plates were centrifuged and sample supernatants were analysed using Cyprotex generic LC MS/MS conditions to generate intrinsic clearance values for CBG. Two control compounds for each species were included in the assay and if the values for these compounds were not within the specified limits the results were rejected and the experiment repeated.
(§3) Following the hepatocyte stability assay the samples were 59 tilized for metabolite profiling using suitable high-resolution LC-MS/MS conditions. The 40 and 60 minute human samples, 20 and 120 minute rat samples, 10 and 20 minute dog and monkey samples, 20 and 60 minute mouse samples, and 40 and 120 minute minipig samples were compared against the 0 minute control sample to establish which and how many metabolites were formed. […]
(§4) The areas and percentages reported for the parent and metabolites were calculated using the XIC data. […]

[2] = tested on: cryopreserved hepatocytes; assay: Hepatocyte stability and metabolite profiling, dog; type: in vitro ADME; settings: dog hepatocyte samples, 10 and 20 minute
Experimental: as §1, §2, §3, §4

[3] = biological target: T1, adrenoceptor alpha 2A (ADRA2A) (Homo sapiens, UniProt P08913); assay: ADRA2A agonist assay (cAMP secondary messenger pathway, HitHunter cAMP XS+); type: cell-based
T1 construct: expressed in transfected cells
T1 sequence (P08913 1-465): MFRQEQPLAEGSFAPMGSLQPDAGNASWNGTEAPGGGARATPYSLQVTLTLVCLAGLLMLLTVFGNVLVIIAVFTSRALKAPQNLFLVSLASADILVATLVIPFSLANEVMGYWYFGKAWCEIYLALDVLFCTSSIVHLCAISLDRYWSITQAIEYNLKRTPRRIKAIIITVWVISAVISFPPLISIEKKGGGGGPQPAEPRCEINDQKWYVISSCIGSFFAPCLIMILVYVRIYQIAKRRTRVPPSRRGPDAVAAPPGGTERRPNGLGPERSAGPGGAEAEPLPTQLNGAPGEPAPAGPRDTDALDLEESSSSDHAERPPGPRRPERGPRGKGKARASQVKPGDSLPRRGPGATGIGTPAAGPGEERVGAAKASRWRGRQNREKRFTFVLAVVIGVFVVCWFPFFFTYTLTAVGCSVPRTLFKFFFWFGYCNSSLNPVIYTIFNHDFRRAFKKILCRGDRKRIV
Source text: Compounds of the present disclosure (e.g., one or more compounds of Formula (1), (II), (III), Table 1 or Table 2) may be tested for activity in receptor binding assays using methods known in the art, to evaluate agonist, antagonist, inverse agonist and other modes of activity. For example compounds of the disclosure may be tested in a adrenoceptor alpha 2A (ADRA2A) Agonist assay as follows:
Cell lines stably expressing non-tagged adrenoceptor alpha 2A (ADRA2A) that signal through cAMP were used. Agonist assays monitored by the activation of ADRA2A via Gi or Gs secondary messenger signaling in a homogenous, non-imaging assay format using a technology called Enzyme Fragment Complementation (EFC) with P-galactosidase (p-Gal) as the functional reporter.
The enzyme is split into two complementary portions: EA for Enzyme Acceptor and ED for Enzyme Donor. ED is fused to cAMP and in the assay competes with cAMP generated by cells for binding to a cAMP-specific antibody. Active P-Gal is formed by complementation of exogenous EA to any unbound ED cAMP. Active enzyme can then convert a chemiluminescent substrate, generating an output signal detectable on a standard microplate reader.
• 1. cAMP assay ADRA2A cell lines were expanded from freezer stocks according to standard procedures. • 2. Cells were seeded in a total volume of 20 μL into white walled, 384 well microplates and incubated at 37° C. for the appropriate time prior to testing • 3. cAMP modulation was determined using the DiscoverX HitHunter cAMP XS+ assay Gs Agonist Format • 1. For agonist determination, cells were incubated with sample to induce response. • 2. Media was aspirated from cells and replaced with 15 μL 2:1 HBSS/10 mM Hepes: cAMP XS+Ab reagent. • 3. Intermediate dilution of sample stocks was performed to generate 4× sample in assay buffer. • 4. 5 μL of 4× sample was added to cells and incubated at 37° C. or room temperature for 30 or 60 minutes. Vehicle concentration was 1%. Gi Agonist Format • 1. For agonist determination, cells were incubated with sample in the presence of EC80 forskolin to induce response. • 2. Media was aspirated from cells and replaced with 15 μL 2:1 HBSS/10 mM Hepes: cAMP XS+Ab reagent. • 3. Intermediate dilution of sample stocks was performed to generate 4× sample in assay buffer containing 4× EC80 forskolin. • 4. 5 μL of 4× sample was added to cells and incubated at 37° C. or room temperature for 30 or 60 minutes. Final assay vehicle concentration was 1% Signal Detection • 1. After appropriate compound incubation, assay signal was generated through incubation with 20 μL cAMP XS+ED/CL lysis cocktail for one hour followed by incubation with 20 μL cAMP XS+EA reagent for three hours at room temperature. • 2. Microplates were read following signal generation with a PerkinElmer Envision™ instrument for chemiluminescent signal detection. Data Analysis • 1. Compound activity was analyzed using CBIS data analysis suite (ChemInnovation, CA) • 2. For Gs agonist mode assays, percentage activity is calculated using the following formula: % Activity=100%×(mean RLU of test sample−mean RLU of vehicle control)/(mean RLU of MAX control−mean RLU of vehicle control). • 3. For Gi agonist mode assays, percentage activity is calculated using the following formula: % Activity=100%×(1−(mean RLU of test sample-mean RLU of MAX control)/(mean RLU of vehicle control-mean RLU of MAX control))

CCCCCc1cc(O)c(C/C=C(\C)CCC=C(C)C)c(O)c1 [CBG, cannabigerol]
metabolites observed (number) [1]: eight
metabolites observed (number) [2]: three
Curve Bottom [3]: 17.138
Curve Top [3]: 167.56
Hill [3]: 1.5564
Emax ([3]; read-out: Max Response): 163%
pEC50 ([3]; read-out: RC50 (Result Type EC50)): 5.87
